Measurements as given in paper PMC4028821 (Chemical communications (Cambridge, England), 2014).

Target: PARP1 (Homo sapiens, UniProt P09874)
Assay: enzyme inhibition assay with recombinant human PARP1
Type: biochemical

Sequence of PARP1 (P09874 2-1014): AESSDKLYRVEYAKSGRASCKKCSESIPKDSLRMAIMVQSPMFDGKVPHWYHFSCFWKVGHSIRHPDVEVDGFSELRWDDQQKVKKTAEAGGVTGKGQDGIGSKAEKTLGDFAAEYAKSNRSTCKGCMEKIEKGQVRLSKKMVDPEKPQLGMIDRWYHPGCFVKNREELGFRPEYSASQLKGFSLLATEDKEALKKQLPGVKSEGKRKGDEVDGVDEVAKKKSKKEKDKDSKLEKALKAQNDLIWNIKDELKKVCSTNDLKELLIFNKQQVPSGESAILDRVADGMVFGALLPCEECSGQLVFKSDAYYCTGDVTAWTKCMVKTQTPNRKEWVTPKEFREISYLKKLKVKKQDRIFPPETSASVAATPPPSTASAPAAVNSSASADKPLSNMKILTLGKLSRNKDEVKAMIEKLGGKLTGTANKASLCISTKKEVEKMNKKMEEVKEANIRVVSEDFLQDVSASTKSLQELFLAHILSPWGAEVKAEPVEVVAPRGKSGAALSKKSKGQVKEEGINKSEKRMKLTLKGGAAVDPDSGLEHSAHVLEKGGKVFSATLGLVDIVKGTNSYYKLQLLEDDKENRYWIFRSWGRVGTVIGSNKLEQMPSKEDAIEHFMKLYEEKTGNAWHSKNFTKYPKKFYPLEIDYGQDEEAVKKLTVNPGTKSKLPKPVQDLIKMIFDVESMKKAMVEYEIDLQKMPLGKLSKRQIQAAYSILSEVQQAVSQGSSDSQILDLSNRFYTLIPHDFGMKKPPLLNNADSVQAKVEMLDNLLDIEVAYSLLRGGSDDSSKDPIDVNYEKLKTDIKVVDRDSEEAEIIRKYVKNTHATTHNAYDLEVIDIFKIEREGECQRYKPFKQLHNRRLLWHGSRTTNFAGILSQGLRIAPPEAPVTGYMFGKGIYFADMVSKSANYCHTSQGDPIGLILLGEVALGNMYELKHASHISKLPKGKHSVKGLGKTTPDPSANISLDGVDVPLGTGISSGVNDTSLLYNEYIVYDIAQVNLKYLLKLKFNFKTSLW

Substance | IC50 [µM]
Olaparib-SiR-COOH [compound 10] | 0.1
Olaparib-SiR-Me [compound 6] | 0.0992
